For series [1], the target named is recombinant human GALK1 (Homo sapiens, UniProt P51570). In words: hGALK1 biochemical activity assay (Kinase-Glo Plus, ATP depletion). In a few lines:
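Recombinant human or mouse GALK1 (5 nM, with 100 μM galactose, in the added enzyme solution) was run with ATP (35 μM in the substrate solution) in HEPES pH 8.0 buffer. Compounds were tested at 11 1/3-step concentrations from 57.4 μM to 0.97 nM. After 1 h at room temperature, remaining ATP was read by Kinase-Glo Plus luminescence.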
(In general: Kinase-Glo measures the ATP left after a reaction by luminescence.)

A short description of series [2]: rat microsomal stability (RLM).
The target in series [3] is recombinant mouse GALK1 (Mus musculus, UniProt Q9R0N0). The experiment in a line: mGALK1 biochemical activity assay (Kinase-Glo Plus, ATP depletion). The method, boiled down:
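Recombinant GALK1 (5 nM) with 100 μM galactose; GALK1 turnover read as ATP depletion by Kinase-Glo Plus luminescence. Reaction ran 1 h at room temperature before detection reagent was added.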

The nature of series [4]: PAMPA permeability. (PAMPA measures passive passage across an artificial lipid membrane.)
The nature of series [5]: aqueous kinetic solubility.
[6] abbreviates: Tables 2-15, 35 μM ATP, 100 μM galactose, 1 h, bracketed figure after some values (e.g. −1.2) is undefined and not reported, read-out: hGALK IC50.
The mark [7] stands for this setting: recombinant human GALK1, Kinase-Glo Plus ATP depletion, read-out: hGALK.
Setting [8] is: Tables 2-15, 35 μM ATP, 100 μM galactose, 1 h, bracketed figure after some values is undefined and not reported, read-out: mGALK IC50.
Setting [9] is: recombinant mouse GALK1, Kinase-Glo Plus ATP depletion, read-out: mGALK.
[10] abbreviates: recombinant mouse GALK1, Kinase-Glo Plus ATP depletion.

Like-named read-outs stand apart in the source and are kept apart here. Some results are limits rather than exact numbers.

recombinant human GALK1, sequence (P51570 whole entry): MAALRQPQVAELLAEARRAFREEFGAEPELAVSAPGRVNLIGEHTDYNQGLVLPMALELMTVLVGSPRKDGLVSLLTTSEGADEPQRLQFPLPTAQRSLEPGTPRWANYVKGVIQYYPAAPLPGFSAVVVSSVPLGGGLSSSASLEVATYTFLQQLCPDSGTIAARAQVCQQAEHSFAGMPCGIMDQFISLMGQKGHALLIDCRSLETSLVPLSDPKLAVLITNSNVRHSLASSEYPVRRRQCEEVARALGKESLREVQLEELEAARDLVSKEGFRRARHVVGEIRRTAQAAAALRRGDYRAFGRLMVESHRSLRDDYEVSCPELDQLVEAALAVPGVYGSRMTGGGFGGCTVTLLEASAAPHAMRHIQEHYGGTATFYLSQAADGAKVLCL
recombinant mouse GALK1, sequence (Q9R0N0 whole entry): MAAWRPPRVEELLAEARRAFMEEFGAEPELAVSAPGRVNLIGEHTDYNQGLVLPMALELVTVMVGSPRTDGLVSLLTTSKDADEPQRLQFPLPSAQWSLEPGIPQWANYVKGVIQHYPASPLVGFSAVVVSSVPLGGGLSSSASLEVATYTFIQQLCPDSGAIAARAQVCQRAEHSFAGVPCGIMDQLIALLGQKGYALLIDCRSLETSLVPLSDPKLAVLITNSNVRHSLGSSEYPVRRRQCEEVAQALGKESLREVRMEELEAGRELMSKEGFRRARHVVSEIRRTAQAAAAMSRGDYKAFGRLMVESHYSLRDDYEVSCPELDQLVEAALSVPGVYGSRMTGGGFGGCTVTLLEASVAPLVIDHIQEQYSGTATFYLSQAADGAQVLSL

`CC1=C(C(=O)Nc2ccc([N+](=O)[O-])cc2)C(c2ccccc2Cl)N=C(Nc2nc3ccccc3o2)N1` (stereo not shown) [Compound 163, 2-(benzo[d]oxazol-2-ylamino)-4-(2-chlorophenyl)-6-methyl-N-(4-nitrophenyl)-1,4-dihydropyrimidine-5-carboxamide]: the IC50 in series [1] (setting [6]), in series [1] (setting [7]), in series [3] (setting [8]) and in series [3] (setting [9]) was 3.43 µM each time. In series [2] (microsomal stability half-life), the “Metab. Stabil. (m)” value is greater than 30 m. The “Perm. (1 × 10^−6 cm/sec)” value in series [4] (PAMPA) is reported as <7.3 1 × 10^−6 cm/sec. Also, in series [5] (aqueous kinetic solubility), the “Sol.” value was less than 1 µg/mL.
Take `CC1=C(C(=O)Nc2cc(C(=O)O)ccn2)[C@@H](c2ccccc2Cl)N=C(Nc2nc3ccccc3o2)N1` [Compound 209, (S)-2-(2-(benzo[d]oxazol-2-ylamino)-4-(2-chlorophenyl)-6-methyl-1,4-dihydropyrimidine-5-carboxamido)isonicotinic acid]: the IC50 in series [1] (setting [6]) was determined as 12.2 µM; in series [1] (setting [7]) it was 12.2 µM; in series [3] (setting [8]), 19.3 µM; in series [3] (setting [9]), 19.3 µM. In addition, the “Metab. Stabil. (m)” value in series [2] (microsomal stability half-life) was greater than 30 m. Further, in series [4] (PAMPA), the “Perm. (1 × 10^−6 cm/sec)” value is reported as <1 1 × 10^−6 cm/sec. Further, in series [5] (aqueous kinetic solubility), the “Sol.” value was greater than 74 µg/mL.
Consider `CC1=C(C(=O)Nc2nnc(-c3cccnc3)s2)C(c2ccccc2Cl)N=C(Nc2nc3ccc(C)cc3o2)N1` (stereo not shown) [Compound 99, 4-(2-chlorophenyl)-2-((6-methylbenzo[d]oxazol-2-yl)amino)-6-methyl-N-(5-(pyridin-3-yl)-1,3,4-thiadiazol-2-yl)-1,4-dihydropyrimidine-5-carboxamide], for which, in series [1] (recombinant human GALK1, Kinase-Glo Plus ATP depletion), the “hGALK (μM)” value is “in- active”. Further, in series [2] (microsomal half-life), the “Metab. Stabil. (m)” value is greater than 30 m. Also, the “mGALK (μM)” value in series [3] (setting [10]) is reported as “in- active”. Moreover, the “Perm. (1 × 10^−6 cm/sec)” value in series [4] is <2.9 1 × 10^−6 cm/sec. The “Sol.” value in series [5] was less than 1 µg/mL.
On to `O=C1CC(C(=O)Nc2nncs2)CC2=C1C(c1ccccc1Cl)N=C(Nc1nc3ccccc3o1)N2` (stereo not shown) [Compound 281, 2-(benzo[d]oxazol-2-ylamino)-4-(2-chlorophenyl)-5-oxo-N-(1,3,4-thiadiazol-2-yl)-1,4,5,6,7,8-hexahydroquinazoline-7-carboxamide], for which the IC50 in series [1] (recombinant human GALK1, Kinase-Glo Plus ATP depletion, bracketed figure in the cell, e.g. (−1.2), is not defined in the text shown, read-out: hGALK) came to 6.85 µM; in series [3] (recombinant mouse GALK1, Kinase-Glo Plus ATP depletion, bracketed figure in the cell, e.g. (−1.2), is not defined in the text shown, read-out: mGALK), 12.2 µM. Moreover, the “Metab. Stabil. (m)” value in series [2] (microsomal stability half-life, minutes) is reported as greater than 30 m. For the same compound, the “Perm. (1 × 10^−6 cm/sec)” value in series [4] (PAMPA) was <5 1 × 10^−6 cm/sec. Also, the “Sol.” value in series [5] (aqueous kinetic solubility) is 1.23 µg/mL.
On to `CC1=C(C(=O)Nc2cc(C(=O)O)ccc2Cl)C(c2ccccc2Cl)N=C(Nc2nc3ccc(F)cc3o2)N1` (stereo not shown) [Compound 29, 4-chloro-3-(4-(2-chlorophenyl)-2-((6-fluorobenzo[d]oxazol-2-yl)amino)-6-methyl-1,4-dihydropyrimidine-5-carboxamido)benzoic acid], for which the results for the IC50 in series [1] (setting [7]) and in series [3] (setting [9]) were 1.54 µM and 19.3 µM, respectively. Further, the “Metab. Stabil. (m)” value in series [2] (microsomal half-life) was greater than 30 m. Moreover, in series [4], the “Perm. (1 × 10^−6 cm/sec)” value is reported as 29.6 1 × 10^−6 cm/sec. Besides, in series [5], the “Sol.” value was 54.0 µg/mL.
As for `CC1=C(C(=O)NCc2cnn(C)c2)C(c2ccc(C)cc2Cl)N=C(Nc2nc3cccnc3o2)N1` (stereo not shown) [Compound 107, 4-(2-chloro-4-methylphenyl)-6-methyl-N-((1-methyl-1H-pyrazol-4-yl)methyl)-2-(oxazolo[5,4-b]pyridin-2-ylamino)-1,4-dihydropyrimidine-5-carboxamide], the IC50 in series [1] (setting [6]) and in series [1] (setting [7]) was 17.2 µM in each case. For the same compound, in series [2] (microsomal half-life), the “Metab. Stabil. (m)” value stood at 3.664 m. Besides, in series [3] (Tables 2-15, 35 μM ATP, 100 μM galactose, 1 h, bracketed figure after some values is undefined and not reported), the “mGALK IC50” value was “inactive”. Moreover, the “mGALK (μM)” value in series [3] (setting [10]) is recorded as “in- active”. Further, the “Perm. (1 × 10^−6 cm/sec)” value in series [4] is 355.44 1 × 10^−6 cm/sec. In addition, the “Sol.” value in series [5] stood at 4.8 µg/mL.
For `CC1=C(C(=O)NCc2ccc(C(=O)O)cc2)C(c2ccccc2Cl)N=C(Nc2nc3ccccc3o2)N1` (stereo not shown) [Compound 225, 4-((2-(benzo[d]oxazol-2-ylamino)-4-(2-chlorophenyl)-6-methyl-1,4-dihydropyrimidine-5-carboxamido)methyl)benzoic acid], the IC50 worked out at 3.43 µM in series [1] (setting [6]), 10.9 µM in series [3] (setting [8]) and 10.9 µM in series [3] (setting [9]). The “Metab. Stabil. (m)” value in series [2] (microsomal stability half-life) was greater than 30 m. In addition, the “Perm. (1 × 10^−6 cm/sec)” value in series [4] (PAMPA) is listed as <1 1 × 10^−6 cm/sec. Also, in series [5] (aqueous kinetic solubility), the “Sol.” value is 47.0 µg/mL.
As for `CC1=C(C(=O)Nc2cc(-c3nn[nH]n3)ccn2)C(c2ccc(C)cc2Cl)N=C(Nc2nc3ccc(F)cc3o2)N1` (stereo not shown) [Compound 88, N-(4-(2H-tetrazol-5-yl)pyridin-2-yl)-4-(2-chloro-4-methylphenyl)-2-((6-fluorobenzo[d]oxazol-2-yl)amino)-6-methyl-1,4-dihydropyrimidine-5-carboxamide], the figures for the IC50 in series [1] (setting [7]) and in series [3] (setting [9]) were 1.37 µM and 9.68 µM, respectively. In addition, the “Metab. Stabil. (m)” value in series [2] (microsomal half-life) is greater than 30 m. Further, the “Perm. (1 × 10^−6 cm/sec)” value in series [4] is <1 1 × 10^−6 cm/sec. Besides, the “Sol.” value in series [5] was less than 1 µg/mL.
Regarding `CC1=C(C(=O)Nc2cccc(-c3cn[nH]c3)c2)C(c2ccccc2Cl)N=C(Nc2nc3ccccc3o2)N1` (stereo not shown) [Compound 178, N-(3-(1H-pyrazol-4-yl)phenyl)-2-(benzo[d]oxazol-2-ylamino)-4-(2-chlorophenyl)-6-methyl-1,4-dihydropyrimidine-5-carboxamide], the IC50 was 17.2 µM in series [1] (setting [6]), 17.2 µM in series [1] (setting [7]), 38.5 µM in series [3] (setting [8]) and 38.5 µM in series [3] (setting [9]). In addition, in series [2] (microsomal stability half-life), the “Metab. Stabil. (m)” value is listed as greater than 30 m. The “Perm. (1 × 10^−6 cm/sec)” value in series [4] (PAMPA) is recorded as <25.4 1 × 10^−6 cm/sec. The “Sol.” value in series [5] (aqueous kinetic solubility) is less than 1 µg/mL.
Take `CC1=C(C(=O)Nc2cc(C#N)ccn2)C(c2ccccc2Cl)N=C(Nc2nc3ccc(F)cc3o2)N1` (stereo not shown) [Compound 39, 4-(2-chlorophenyl)-N-(4-cyanopyridin-2-yl)-2-((6-fluorobenzo[d]oxazol-2-yl)amino)-6-methyl-1,4-dihydropyrimidine-5-carboxamide]: the IC50 in series [1] (setting [6]) was 4.32 µM; in series [1] (setting [7]), 4.32 µM; in series [3] (setting [8]), 4.85 µM; in series [3] (setting [9]), 4.85 µM. Further, in series [2] (microsomal half-life), the “Metab. Stabil. (m)” value is greater than 30 m. For the same compound, in series [4], the “Perm. (1 × 10^−6 cm/sec)” value was <6.8 1 × 10^−6 cm/sec. In addition, in series [5], the “Sol.” value is less than 1 µg/mL.
In the case of `CC1=C(C(=O)Nc2cc(C(=O)O)ccn2)C(c2ccc(C)cc2Cl)N=C(Nc2nc3cnccc3o2)N1` (stereo not shown) [Compound 106, 2-(4-(2-chloro-4-methylphenyl)-6-methyl-2-(oxazolo[4,5-c]pyridin-2-ylamino)-1,4-dihydropyrimidine-5-carboxamido)isonicotinic acid], the IC50 in series [1] (setting [6]) is 0.86 µM; in series [1] (setting [7]) it was 0.86 µM; in series [3] (setting [8]), 6.85 µM; in series [3] (setting [9]) it was 6.85 µM. Also, the “Metab. Stabil. (m)” value in series [2] (microsomal half-life) is greater than 30 m. For the same compound, in series [4], the “Perm. (1 × 10^−6 cm/sec)” value is on record as <1 1 × 10^−6 cm/sec. Besides, the “Sol.” value in series [5] is greater than 51 µg/mL.
For `CC1=C(C(=O)Nc2cc(C(=O)O)ccn2)C(c2ccc(C)cc2Cl)N=C(Nc2nc3ncccc3o2)N1` (stereo not shown) [Compound 102, 2-(4-(2-chloro-4-methylphenyl)-6-methyl-2-(oxazolo[4,5-b]pyridin-2-ylamino)-1,4-dihydropyrimidine-5-carboxamido)isonicotinic acid], the IC50 in series [1] (setting [6]) came out at 4.85 µM; in series [1] (setting [7]), 4.85 µM; in series [3] (setting [8]) it was 19.3 µM; in series [3] (setting [9]), 19.3 µM. In series [2] (microsomal half-life), the “Metab. Stabil. (m)” value is listed as greater than 30 m. The “Perm. (1 × 10^−6 cm/sec)” value in series [4] is <1 1 × 10^−6 cm/sec. In addition, in series [5], the “Sol.” value is greater than 51 µg/mL.
As to `CC1=C(C(=O)Nc2ccc(C#N)cn2)C(c2ccccc2Cl)N=C(Nc2nc3ccc(F)cc3o2)N1` (stereo not shown) [Compound 40, 4-(2-chlorophenyl)-N-(5-cyanopyridin-2-yl)-2-((6-fluorobenzo[d]oxazol-2-yl)amino)-6-methyl-1,4-dihydropyrimidine-5-carboxamide], the IC50 in series [1] (setting [7]) and in series [3] (setting [9]) was 13.7 µM each time. In series [2] (microsomal half-life), the “Metab. Stabil. (m)” value is on record as greater than 30 m. Moreover, in series [4], the “Perm. (1 × 10^−6 cm/sec)” value is listed as <7.8 1 × 10^−6 cm/sec. In addition, the “Sol.” value in series [5] is less than 1 µg/mL.
As to `CC1=C(C(=O)NCc2cnn(C)c2)C(c2ccc(C)cc2Cl)N=C(Nc2nc3ccc(F)c(C(=O)O)c3o2)N1` (stereo not shown) [Compound 128, 2-((4-(2-chloro-4-methylphenyl)-6-methyl-5-(((1-methyl-1H-pyrazol-4-yl)methyl)carbamoyl)-1,4-dihydropyrimidin-2-yl)amino)-6-fluorobenzo[d]oxazole-7-carboxylic acid], the values for the IC50 in series [1] (setting [7]) and in series [3] (setting [9]) were 17.2 µM and 21.7 µM, respectively. The “Metab. Stabil. (m)” value in series [2] (microsomal stability half-life) was greater than 30 m. Besides, the “Perm. (1 × 10^−6 cm/sec)” value in series [4] (PAMPA) is listed as <1 1 × 10^−6 cm/sec. For the same compound, the “Sol.” value in series [5] (aqueous kinetic solubility) is 26.3 µg/mL.

These data come from patent US20230158025A1 (UNIVERSITY OF UTAH RESEARCH FOUNDATION, priority 2020, published 2023).
